Experimental data as given in patent US8551405B2, “Electrophoretic interactive spectral methods and devices for the detection and/or characterization of biological particles” (The University of North Carolina at Chapel Hill, priority 2004, dated 2013).
Where “and” joins values, the source holds several entries; their conditions need not be identical. Equal values may be shown once. Read-outs that look alike come from different tables or passages of the source. One block for each substance: values may come before it.

What was measured:
[1] = rFVIIa concentration after therapeutic infusion; format: in vivo; settings: therapeutic infusion for a bleeding diathesis, estimated
activated platelets = assay: EQELS binding of proteins to thrombin-activated platelets; set-up: species or system human
Procedure: (§1) Fresh gel-filtered platelets were used in all experiments. Blood from healthy donors was collected in acid-citrate-dextrose and prostacyclin (5 μg/mL, PGI2, Sigma Chemical Co., St. Louis, Mo.). Platelet-rich-plasma was obtained by centrifugation of the anticoagulated blood at 150 g for 15 minutes. […] Gel-filtered platelets were obtained from the application of washed platelets to a Sepharose CL-2B column (Pharamica Inc., Uppsala, Sweden) equilibrated with calcium-free albumin-free Tyrode's buffer. Platelets for light scattering experiments were suspended in buffer containing 20 mM NaCl, 265 mM sucrose, 2 mM HEPES, pH 7.4 and activated with human α-thrombin (0.2 NIH units/mL). See Li, X., Gabriel, D. A. The physical exchange of factor VIII (FVIII) between von Willebrand factor and activated platelets and the effect of the FVIII B-domain on platelet binding (1997) Biochem. J. 36, 10760-10767. […] EQELS spectra of the gel filtered platelets gave a single homogeneous mobility indicating the lack of microparticles. No change is observed in the platelet mobility spectrum on the addition of rFVIIa over the concentration range where rFVIIa would be expected to bind to tissue factor if it was present, indicating an absence of TF in the preparation.
Electrophoretic quasi-elastic light scattering offers the ability to monitor changes in the surface of blood cells resulting from cell activation and ligand binding. Gabriel, D. A., Reece, N., Witte, J., and Muga, K. Electrophoretic light scattering studies on the interaction of fibrinogen with resting and activated human platelets (1993) Blood Coagul. Fibrinolysis 4, 397-403; Johnson, C., and Gabriel, D. A. (1995) Laser Light Scattering, Dover, N.Y. The electrophoretic mobility of activated platelets changes when exposed to a known ligand and that the mobility change is the result of ligand binding. […] Under these experimental conditions, resting gel-filtered platelets have an electrophoretic mobility of −0.9 (μ-cm)/(volt-sec) and activated platelets have a mobility of −0.65(μ-cm)/(volt-sec). Loading the platelet surface with a ligand, such as a FIX or FVIII, changes the platelet electrophoretic mobility. While the absolute mobility varies slightly from donor to donor, there is minimal variation in a given donor. The dependence of the change in the platelet electrophoretic mobility on the addition of FIX permits calculation of the binding constant for FIX to the activated platelet. It is not the magnitude of the change in the platelet electrophoretic mobility, μ, that determines the binding constant, but how the change in μ depends on the concentration of the ligand FIX. The effect of ligand binding on the platelet mobility varies with the ligand, and is dependent on the extent of ligand binding, the extent of surface modification caused by ligand binding, and on the net charge of the ligand itself.
EQELS measurements were made on a multi-angle quasi-elastic light scattering spectrometer (DELSA 440, Coulter Electronics, Inc., Hialeah, Fla.). See Li, X., Gabriel, D. A. Biochem. J. 36, 10760-10767 (1997); Johnson, C., and Gabriel, D. A. (1995) Laser Light Scattering, Dover, N.Y.
Activated platelets and activated FVIII were prepared by activation with 0.2 NIH U/mL human α-thrombin for 5 minutes. After activation, residual thrombin was inactivated by addition of 2.5 μM phenylalanyl prolinyl arginine chloromethyl ketone (PPACK, Calbiochem, La Jolla, Calif.). FIX, FIXa, FVIIIa, and rFVIIa were incubated with platelets for 10 minutes before EQELS measurements.
The binding coefficient (Kd) of the proteins to platelets was determined by fitting the data from the binding experiment to:
[formula] where, μ is the electrophoretic mobility, μ0 is the mobility in the absence of added protein, Δμ is the calculated maximal change in mobility at the saturating concentration of protein. This model assumes one class of binding sites for the specific protein ligand on the platelets. […]

[2] = biological target: T1, platelet-bound zymogen FIX (Homo sapiens, UniProt P00740); assay: EQELS time and concentration dependence of zymogen FIX activation by rFVIIa on activated platelets; format: cell-based; settings: FIX 10 nM
T1 construct: made in house
Procedure: FIG. 11A is a graph of the time and concentration dependence of rFVIIa on the activation of zymogen FIX. Platelets were activated with thrombin followed by inhibition of thrombin with PPACK. The activated platelets were then loaded with rFVIIa (0.075 nM, 1 nM, or 10 nM) and monitored as a function of time. The mobility at the initial time (zero) is the mobility for platelets loaded with zymogen FIX. […] Changes in the platelet mobility result from FIX activation.
Zymogen FIX at varying concentrations was added to the thrombin activated platelets that in some experiments included FVIIIa followed by a 10 minute incubation period. After this incubation period, rFVIIa was added to activated platelets coated with zymogen FIX. The EQELS spectrum was then obtained.
A decrease in the […] of FIX was used to detect activation of zymogen FIX by rFVIIa.

FIX = biological target: T2, FIX (Homo sapiens, UniProt P00740); assay: Functional (chromogenic) assay for activation of FIX on activated platelets; format: biochemical
T2 construct: made in house
Procedure: FIG. 12 is a graph illustrating the amount of FIX activated as a function of time and at different concentrations of rFVIIa (between 0 nM and 49 nM) for a chromogenic assay to show activation of FIX by rFVIIa in the absence of TF.
All assays were run in Tyrodes buffer with 2 mM CaCl2. Platelets were activated with 0.2 NIH units/ml of human α-thrombin for 10 minutes at 37° C. FVIII at 5 units/ml were included with the platelets and thrombin. Thrombin was neutralized with hirudin from a medium titrated against an α-thrombin standard. FVIIa at varying concentrations was added to the platelets for 10 minutes. Plasma concentrations of FIX at 80 nM were added and incubated for varied times. FIXa was assayed in a two stage assay. Platelets with activated FIX were incubated with plasma concentrations of FX for 5 minutes, then the amount of FXa was measured by adding plasma concentrations of prothrombin along with a […] (0.5 mM Perfachrome Th). […] Thrombin generation was measured as the change in the absorbance as the p-nitroanilide substrate was cleaved as a function of time. As expected, substrate cleavage fit a second order pattern and the rate of thrombin generation was determined from the first derivative of the absorbance versus time data.

[3] = tested on: activated platelet surface; settings: literature, read-out: Kd, binding to activated platelet surface, cited from earlier work
resting platelets = assay: EQELS binding to resting platelets; set-up: species or system human; settings: data not shown
Procedure: as §1, with “preparation. […]” for “preparation.”

[4] = 4 mM Ca++, 3 nM FVIIIa, read-out: Binding Coefficient (Kd), interaction with activated platelets
[5] = 4 mM Ca++, No FVIIIa, read-out: Binding Coefficient (Kd), interaction with activated platelets

T1 sequence (P00740 29-461 limits assumed): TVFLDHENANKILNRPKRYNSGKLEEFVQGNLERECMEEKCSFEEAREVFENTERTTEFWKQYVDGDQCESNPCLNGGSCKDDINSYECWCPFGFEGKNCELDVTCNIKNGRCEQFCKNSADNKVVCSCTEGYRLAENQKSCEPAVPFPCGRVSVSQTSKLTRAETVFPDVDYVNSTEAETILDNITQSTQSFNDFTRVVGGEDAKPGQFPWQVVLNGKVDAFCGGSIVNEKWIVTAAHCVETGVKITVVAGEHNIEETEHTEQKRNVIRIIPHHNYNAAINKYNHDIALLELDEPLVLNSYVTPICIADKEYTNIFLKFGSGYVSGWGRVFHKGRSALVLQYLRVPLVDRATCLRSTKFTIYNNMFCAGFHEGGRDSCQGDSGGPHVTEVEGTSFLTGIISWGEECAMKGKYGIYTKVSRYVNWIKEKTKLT
T2 sequence (P00740 29-461 limits assumed): as above

- activation of zymogen FIX by rFVIIa (EQELS) ([2]; 0.075 nM rFVIIa, approximately 30 minutes): minimal activation
- activation of zymogen FIX by rFVIIa (EQELS) ([2]; 1 nM rFVIIa): further activation
- FXa and thrombin production (FIX; dependent on concentration of added rFVIIa, not shown in FIG. 12): produced
Substance: Recombinant activated coagulation factor Vila [rFVIIa]
- concentration of rFVIIa after therapeutic infusion [1]: approximately 30 nM
- change in platelet mobility on addition of rFVIIa (activated platelets; concentration range where rFVIIa would be expected to bind tissue factor): no change
- change in platelet surface charge (activated platelets; conditions identical to FIXa binding experiment): does not change
- rFVIIa concentration at which it binds to platelets in the presence of FIX (activated platelets; in the presence of FIX): ≥ 10 nM
- change in electrophoretic mobility of platelets on addition of rFVIIa (activated platelets; rFVIIa 0 to 40 nM): did not change
- binding of rFVIIa to activated platelets (activated platelets; rFVIIa at 10 nM): does not bind
- binding of rFVIIa to activated platelets (activated platelets; rFVIIa greater than 100 nM): can be detected
- direct binding of rFVIIa to activated platelet surface (activated platelets; rFVIIa less than 100 nM, even in the presence of calcium): no direct binding
- binding of rFVIIa to activated platelets (activated platelets; rFVIIa range of 0.75 to 10 nM): does not bind
- Kd (activated platelets; very high rFVIIa concentrations, absence of calcium (unpublished data), read-out: Kd of rFVIIa binding to platelets): 250 nM
- Kd (activated platelets; very high rFVIIa concentrations, presence of calcium (unpublished data), read-out: Kd of rFVIIa binding to platelets): 123 nM
- conversion of zymogen FIX to activated FIX by rFVIIa (EQELS) ([2]; 10 nM rFVIIa): still more rapid rate
- activation of platelet-bound zymogen FIX (chromogenic assay) (FIX; rFVIIa 10, 20, 30, 40 nM, absence of TF): linear in time and directly proportional to the concentration of added rFVIIa

Substance: Activated coagulation factor IX [FIXa]
- Kd ([3]; in the presence of rFVIIIa): 0.6 nM
- Kd ([3]; no rFVIIIa): 2.5 nM
- Kd (activated platelets; [4]): 0.57 nM
- Kd (activated platelets; [5]): 1.9 nM
- Kd (activated platelets; 4 mM calcium, 3 nM rFVIIIa, read-out: binding constant (Kd) to activated platelets): 0.569 nM and 0.6 nM
- Kd (activated platelets; 4 mM calcium, no rFVIIIa, read-out: binding constant (Kd) to activated platelets): 1.9 nM and 2 nM
- binding to activated platelets (change in platelet electrophoretic mobility) (activated platelets; absence of calcium): no binding
- binding to resting platelets (resting platelets): do not bind

Substance: Coagulation factor IX [FIX]
- Kd (activated platelets; 10 nM rFVIIa, 4 mM calcium, 3 nM rFVIIIa, read-out: binding coefficient (Kd) for zymogen FIX to activated platelets in presence of rFVIIa): 0.84 nM
- Kd (activated platelets; 10 nM rFVIIa, 4 mM calcium, no rFVIIIa, 10 min incubation, read-out: binding coefficient (Kd) for zymogen FIX to activated platelets in presence of rFVIIa): 1.62 nM and 1.6 nM
- Kd (activated platelets; [4]): 5.8 nM
- Kd (activated platelets; [5]): 7.9 nM
- Kd (activated platelets; FIX + FVIIa (10 nM), 4 mM Ca++, No FVIIIa, read-out: Binding Coefficient (Kd) for FIX in the presence of FVIIa, activated platelets): 1.62 nM
- binding to resting platelets (resting platelets): do not bind
